Experimental findings from patent publication US10233180B2, “Substituted nitrogen-containing heterocyclic derivatives, pharmaceutical compositions comprising the same and applications of antitumor thereof” (ZHEJIANG UNIVERSITY, priority 2014, dated 2019) are described below.

One test concerns the target T1, Akt1 (Homo sapiens, UniProt P31749).
T1 construct: purchased 32-021
Nature of the test: AKT1/PKBα KinEASE FP Fluorescein Green Assay (fluorescence polarization kinase kit). Particulars: 1 h reaction, read-out: Inhibitory activities against Akt1 (IC50). It is filed as biochemical. The method in brief: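 FP competition kinase assay: compounds (50 μM stock) with STK Substrate 3 and ATP, 1 h reaction at room temperature; stopped with stop/antibody mix, 4 h at room temperature, then polarization read. Inhibition derived from polarization values; IC50 calculated; triplicate wells.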
On the technique in general: In fluorescence polarisation assays a small probe gives low polarisation when free and higher when bound to something large.

The subject of test [1] is Human ovarian cancer cell strain OVCAR-8. Nature of the test: MTT assay, inhibition of tumor cell growth in vitro, 72 h. It is filed as cell-based. Particulars: Homo sapiens, OVCAR-8, MTT, read-out: Antitumor proliferative activities of tumor cell (IC50, μM) OVCAR-8. The method in brief:
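OVCAR8 cells in RPMI 1640 plus FBS were seeded at 4000 cells/well and exposed for 72 h at 37 °C to compound at 50, 10, 2, 0.4 and 0.08 μM final, with 1% DMSO as blank. Inhibition was calculated from OD relative to control, and IC50 was derived by the Bliss method.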

Test [2] concerns human colon cancer cell strain HCT-116. The test is described as above. The following applies: Homo sapiens, HCT-116, MTT, read-out: Antitumor proliferative activities of tumor cell (IC50, μM) HCT-116 (converted). It is filed as cell-based. The method in brief: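 Cells in RPMI 1640 with FBS, 4000 cells/well, exposed 72 h at 37 °C, 5% CO2 to final 50, 10, 2, 0.4 and 0.08 μM; 1% DMSO blank. MTT OD gives % inhibition versus control; IC50 derived by Bliss method.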

T1 sequence (P31749 whole entry): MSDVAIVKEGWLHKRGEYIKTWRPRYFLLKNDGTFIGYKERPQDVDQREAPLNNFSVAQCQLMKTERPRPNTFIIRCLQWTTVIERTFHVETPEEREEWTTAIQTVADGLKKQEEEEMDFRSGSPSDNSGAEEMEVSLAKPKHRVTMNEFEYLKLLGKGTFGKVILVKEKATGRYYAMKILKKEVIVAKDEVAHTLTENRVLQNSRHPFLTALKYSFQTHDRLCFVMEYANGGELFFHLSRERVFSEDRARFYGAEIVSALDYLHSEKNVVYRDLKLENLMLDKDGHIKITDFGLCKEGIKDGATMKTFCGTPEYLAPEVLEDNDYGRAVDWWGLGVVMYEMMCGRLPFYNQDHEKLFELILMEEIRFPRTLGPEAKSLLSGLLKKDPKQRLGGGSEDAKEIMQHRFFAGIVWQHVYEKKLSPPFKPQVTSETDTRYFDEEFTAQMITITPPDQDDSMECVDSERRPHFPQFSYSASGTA

In general, IC50 refers to the concentration that gives 50% inhibition. For `Cn1ncc(Br)c1-c1csc(C(=O)N[C@H]2CNCC[C@@H]2c2ccc(F)c(F)c2)c1` [Compound 41, 4-(4-bromo-1-methyl-1H-pyrazol-5-yl)-N-((3R,4R)-4-(3,4-difluorophenyl)piperidin-3-yl)thiophene-2-formamide], the figures for the IC50 (on Akt1; in test [1]; in test [2]) were 452 nM, 9.43 µM and 4.06 µM, respectively.

`C[C@H]1CNC[C@@H](NC(=O)c2ccc(-c3c(Cl)cnn3C)s2)[C@@H]1c1cccc(F)c1` [Compound 150, 5-(4-chloro-1-methyl-1H-pyrazol-5-yl)-N-((3S, 4S, 5R)-4-(3-fluorophenyl)-5-methylpiperidin-3-yl)thiophene-2-formamide]: the IC50 on Akt1 is 3 nM; in test [1], 1.19 µM; in test [2] it was 4.43 µM.

In the case of `Cn1ncc(Cl)c1-c1cnc(C(=O)N[C@@H]2CNCC[C@H]2c2ccc(F)c(F)c2)c(F)c1` [Compound 97, 5-(4-chloro-1-methyl-1H-pyrazol-5-yl)-N-((3S,4S)-4-(3,4-difluorophenyl)piperidin-3-yl)-3-fluoropicolinamide], the IC50 on Akt1 is 8 nM; in test [1] it was 4.89 µM; in test [2], 4.14 µM.

As to `Cn1ncc(Cl)c1-c1ccc(C(=O)N[C@@H]2CNCC[C@H]2c2ccc(F)c(F)c2)cc1F` [Compound 82, 4-(4-chloro-1-methyl-1H-pyrazol-5-yl)-N-((3S,4S)-4-(3,4-difluorophenyl)piperidin-3-yl)-3-fluorobenzamide], the IC50 at Akt1 was 16 nM; in test [1], 1.15 µM; in test [2] it was 1.56 µM.

Regarding `Cn1ncc(Br)c1-c1coc(C(=O)N[C@H]2CNCC[C@@H]2c2ccccc2)c1` (racemic) [Compound 22, 4-(4-bromo-1-methyl-1H-pyrazol-5-yl)-N-(3,4-trans-4-phenylpiperidin-3-yl) furan-2-formamide], the IC50 at Akt1 was 108 nM; in test [1], 7.89 µM; in test [2], 12.2 µM.

In the case of `CC(C)c1cnn(C)c1-c1nc(C(=O)N[C@H]2CNCC[C@@H]2C2CCC(F)C2)ncc1Cl` (stereo partly drawn) [Compound 51, 5-chloro-4-(4-isopropyl-1-methyl-1H-pyrazol-5-yl)-N-(3,4-trans-4-(3-fluorocyclopentane)piperidin-3-yl)pyrimidine-2-formamide], the IC50 on Akt1 was 85 nM; in test [1] it was 0.68 µM; in test [2], 3.11 µM.

`Cn1ncc(Cl)c1-c1ccc(C(=O)N[C@@H]2CNCC[C@H]2c2ccc(Cl)c(C(F)(F)F)c2)c(F)c1` [Compound 84, 4-(4-chloro-1-methyl-1H-pyrazol-5-yl)-N-((3S,4S)-4-(4-chloro-3-(trifluoromethyl)phenyl)piperidin-3-yl)-2-fluorobenzamide]: the figures for the IC50 (at Akt1; in test [1]; in test [2]) were 9 nM, 4.44 µM and 2.1 µM, respectively.

With `Cn1ncc(Cl)c1-c1coc(C(=O)N[C@H]2CNCC[C@@H]2c2ccc(F)c(F)c2)c1` (racemic) [Compound 25, 4-(4-chloro-1-methyl-1H-pyrazol-5-yl)-N-(3,4-trans-4-(3,4-difluorophenyl)piperidin-3-yl)furan-2-formamide], the IC50 at Akt1 is 238 nM; in test [1], 21.4 µM; in test [2], 3.19 µM.

In the case of `CC(O)c1cnn(C)c1-c1ccc(C(=O)N[C@@H]2CNCC[C@H]2c2cccc(F)c2)s1` (stereo partly drawn) [Compound 143, N-((3S, 4S)-4-(3-fluorophenyl)piperidin-3-yl)-5-(4-(1-hydroxyethyl)-1-methyl-1H-pyrazol-5-yl)thiophene-2-formamide], the results for the half-maximal inhibitory concentration (IC50) (at Akt1; in test [1]; in test [2]) were 0.7 nM, 0.04 µM and 0.08 µM, respectively.

As to `Cn1nccc1-c1coc(C(=O)N[C@H]2CNCC[C@@H]2c2ccc(F)c(F)c2)c1` (racemic) [Compound 21, 4-(1-methyl-1H-pyrazol-5-yl)-N-(3,4-trans-4-(3,4-difluorophenyl)piperidin-3-yl)furan-2-formamide], the IC50 is 119 nM on Akt1, 10.7 µM in test [1] and 21 µM in test [2].
